Reference: patent publication US12103952B2, “Methods for expressing proteins in axons” (Cornell University, priority 2010, dated 2024)

Test system: E15 dissociated DRG neurons
Test: NGF-mediated retrograde survival in compartmented (Campenot) chambers, TUNEL assay
Format: cell-based, rat
Method: FIGS. 2A-E are results showing that local protein synthesis in axons is required for NGF-dependent survival. (A) Phospho-4E-BP1 levels increase in growth cones in response to NGF treatment. DRG neurons were incubated with NGF-replete or NGF-free media; phospho-4E-BP1 levels in axons were measured by immunofluorescence. Scale bar, 50 μm. (B) Quantification of total and phospho-4EBP1 in (A) p=0.012. Numbers on bars represent n axons per condition. (C) Schematic diagram of compartmented (Campenot) chambers. E15 dissociated DRG neurons are cultured in the cell body compartment and axons grow under a thinly applied silicone grease layer that seals the chamber with the Permanox® plastic culture slide. (D) Application of protein synthesis inhibitors to axons blocks NGF-mediated retrograde survival. Dissociated DRG neurons were grown in compartmentalized chambers, and vehicle or NGF was added to the axon compartment. 1 μM cycloheximide (CHX) or 40 μM anisomycin (Aniso) were added to the axon compartment concurrently with NGF media. Cell body compartments were kept NGF-free during the course of the experiment. Cells crossing the divider were retrogradely labeled with WGA-Alexa555 and only WGA-positive cell bodies were counted in the data set. Survival was assessed by TUNEL assay. Examples of non-apoptotic and apoptotic are indicated with closed and open arrows, respectively (Blue=DAPI, Green=TUNEL). Scale bar, 20 μm. (E) Quantification of results from (D). *p<0.001. Numbers on bars represent n cells per condition.
Campenot chambers were modified for FISH and Immunofluorescence analysis as follows: Teflon dividers were applied to poly-D-lysine, laminin and collagen (1 mg/ml)-coated Lab-Tek chambers (NUNC). The low autofluorescence of the Permanox® plastic in these chambers allows us to perform fluorescence analyses on these cultures much more readily than is possible using traditional cell culture plasticware. E15 dissociated DRG neurons were plated in the cell body compartment in media containing 100 ng/ml NGF and 20 μM 5′-fluorodeoxyuridine to inhibit glial growth. Media was changed every 2 DIV and NGF concentration in the cell body compartment was halved at each media change. At DIV 5, when axons had crossed the divide into the axonal compartment, NGF was withdrawn from the cell body compartment and experimental media containing NGF (0 ng/ml or 30 ng/ml) and/or drug treatments/siRNA transfection reagents was applied to the axon compartment for a further 2 DIV. All media were completely replaced every subsequent 12 hours to ensure purity of the conditions in the respective compartments. […]

[1] = axonal application together with NGF, 1 μM cycloheximide or 40 μM anisomycin, compared to NGF alone

In the case of `COc1ccc(C[C@H]2NC[C@H](O)[C@H]2OC(C)=O)cc1` [anisomycin], the neuronal survival [1] is reported as “significant reduction in survival”.
For `C[C@@H]1C[C@@H]([C@H](O)CC2CC(=O)NC(=O)C2)C(=O)[C@@H](C)C1` [cycloheximide], the neuronal survival [1] was “significant reduction in survival”.
For NGF: nerve growth factor, the DRG survival (5 DIV compartmented cultures, NGF applied to either axons or cell bodies individually) was “capable of supporting DRG survival” and the neuronal survival (NGF applied exclusively to the axonal compartment, cell body compartment NGF-free, 48 hour, compared to vehicle-treated axons) was “significant increase in neuronal survival”.
